Literature values in patent US7993907B2, “Biochips and method of screening using drug induced gene and protein expression profiling” (Mowycal Lending, LLC, priority 2001, dated 2011).
Where two headings read alike, the source gives them in different places. Where no end group is shown, it is not given here. The star is where a group is joined. For = O=C*

Columns and labels:
[1] = Indication Alzheimer's Disease
[2] = examples of hazardous chemicals
[3] = Indication Osteoporosis
[4] = Indication Breast Cancer
[5] = Indication Acute Respiratory Disease
[6] = Indication Congestive Heart Failure
[7] = system: human peripheral blood cells; settings: cells stimulated by pro-inflammatory agents or molecules

C[C@]12CC[C@H](O)CC1=CC[C@@H]1[C@@H]2CC[C@]2(C)C(=O)CC[C@@H]12 [DHEA]
Termination (reason drug was discontinued or terminated in FDA trials) [1]: Results were equal

CC[n+]1c(-c2ccccc2)c2cc(N)ccc2c2ccc(N)cc21 [Ethidium Bromide (EtBr), Ethidium Bromide]
Hazard [2]: Mutagen

CC/C(=C(\c1ccc(I)cc1)c1ccc(OCCN2CCCC2)cc1)c1ccccc1 [Idoxifene]
Termination (reason drug was discontinued or terminated in FDA trials) [3]: Lack of efficacy | Termination (reason drug was discontinued or terminated in FDA trials) [4]: Lack of efficacy

C[C@@H](O)CCCCn1c(=O)c2c(ncn2C)n(C)c1=O [Lisofylline]
Termination (reason drug was discontinued or terminated in FDA trials) [5]: Safety Board

ENBREL
Termination (reason drug was discontinued or terminated in FDA trials) [6]: Lack of efficacy

f-Met-Leu-Phe-Phe (For-MLFF) [HK-X]
Mechanism of action on G protein γ kinase (G protein γ kinase): inhibition of G protein γ kinase | Effect on pro-inflammatory responses of human peripheral blood cells [7]: inactivate certain pro-inflammatory responses
